From a melting point compilation (Tetko et al.) come the findings set out here.

For `Cc1cccc(NC(=O)N2CCCC(C(=O)O)C2)c1` (stereo not given), the melting point (as a rule, the temperature of the solid-liquid transition) fell in the range of 139 to 141 °C. The figure for `NC(=O)CC(F)(F)F` is 101 to 103 °C; for `CC(=O)Nc1cc(Cl)ccc1N` it is 137 to 139 °C; for `C#CCOc1ccccc1O` it is 48 to 50 °C.

Take `CC(=O)Nc1ccc(C(=O)C(C)Cl)cc1` (stereo not given): the melting point is 190 to 193 °C. On to `O=C(O)c1cccnc1C1CC1`, for which the melting point was in the range of 196 to 198 °C. `Cc1ccc(-c2csc(CC(N)=S)n2)cc1` showed a melting point of 117 to 119 °C. As to `CN(c1ccc(F)cc1)S(=O)(=O)c1ccc(Cl)c(C(=O)O)c1`, the melting point is 174 to 176 °C. Regarding `CCCCn1c(N)c(NC)c(=O)[nH]c1=O`, the melting point lay within 201 to 203 °C. Molecule `CC(=O)N1CCCCC1C(=O)O` (stereo not given) came in with a melting point of 137 to 139 °C. In the case of `O=C(O)C1CCN(C(=O)c2ccc3[nH]ncc3c2)CC1`, the melting point fell in the range of 246 to 248 °C. The figure for `O=C(O)C1CCCN1S(=O)(=O)c1ccc(Br)cc1` (stereo not given) is 103 to 105 °C; for `N#Cc1c(N)cc(N)nc1S` it is 349 to 351 °C; for `Cc1c(C(=O)O)c(=O)oc2ccc(Br)cc12` it is 179 to 181 °C. On to `COCCOCC(=O)Nc1cccc(N)c1C`, for which the melting point was 82 to 84 °C. `COC(=O)c1ccn2c(I)cnc2c1` registered a melting point of 209 to 211 °C.

For the molecule `CCn1c(=O)cc(Cl)[nH]c1=O`, the melting point was 210 to 212 °C. For the molecule `CCSc1ccc(Cl)cc1C(=O)O`, the melting point is 154 to 156 °C. As for `CC1CN(c2cc(N)cc(F)c2)CC(C)O1` (stereo not given), the melting point was in the range of 80 to 82 °C. With `O=S(=O)(c1ccc2c(c1)CCCN2)N1CCCCC1`, the melting point was in the range of 121 to 123 °C. `CCc1sc(=O)[nH]c1-c1ccccc1` yielded a melting point of 136 to 138 °C. As for `O=C(CCl)N1CCNC1=O`, the figure is 195 to 197 °C.

`O=C(O)c1cccc(C(F)F)c1` gave a melting point of 125 to 127 °C. On to `Nc1ccccc1NC(=O)c1ccccc1`, for which the melting point lay in the range of 149 to 151 °C. For `CC(C)(C)c1noc(-c2ccccc2C(=O)O)n1`, the melting point was in the range of 100 to 102 °C.

Molecule `O=S1(=O)C=CC(Br)C1` (stereo not given) registered a melting point of 54 to 55 °C. For `O=[N+]([O-])c1cnc(Cl)c(Cl)c1`, the melting point was in the range of 52 to 54 °C. Regarding `Cc1ccc(CCC(=O)O)cc1Cl`, the melting point fell in the range of 84 to 86 °C. As to `Cn1cnnc1SCC(=O)Nc1cccc(C(=O)O)c1`, the melting point lay in the range of 231 to 233 °C. The figure for `CS(=O)(=O)OCCn1cnc2ccsc2c1=O` is 112 to 114 °C; for `COC(=O)N(C)c1ccc([N+](=O)[O-])cc1` it is 108 to 110 °C; for `Nc1ccc(N2CCSCC2)c(Cl)c1` it is 101 to 103 °C. `O=C(O)C1CCN(CC(F)(F)F)CC1`: the melting point was 62 to 64 °C. In turn, `CCn1cnnc1S` gave a melting point of 98 to 100 °C.

`O=C(O)CCn1cnc2ccccc2c1=O` registered a melting point of 181 to 183 °C. The molecule `CC(C)CC(N)c1nnn[nH]1` (stereo not given) yielded a melting point of 272 to 274 °C.

In the case of `O=C(O)c1nnc(S)[nH]c1=O`, the melting point lay in the range of 229 to 231 °C. Take `CN(C)Cc1c(O)ccc2c1CCCC2`: the melting point lay in the range of 77 to 79 °C. On to `COc1cc(CC#N)cc(Br)c1OCC(F)(F)F`, for which the melting point lay in the range of 116 to 118 °C.

Take `O=C(O)CCc1nc2cccc(Cl)c2[nH]1`: the melting point lay within 209 to 211 °C.

Take `Cn1c(S)nnc1-c1ccncc1`: the melting point was 121 to 123 °C.

Consider `Cc1cnn(-c2ccc(C(=O)O)cc2)c1`, for which the melting point fell in the range of 240 to 242 °C. As for `CC(N)c1cccc(S(N)(=O)=O)c1` (stereo not given), the figure is 27 to 29 °C; as for `COc1ccccc1C(N)=NO`, 105 to 107 °C.

For the molecule `COc1cccc(-c2n[nH]cc2C=O)c1`, the melting point is 91 to 93 °C.

The molecule `CCOc1ccc2c(c1)NC(=O)C2=O` had a melting point of 226 to 228 °C.

For the molecule `Cc1nn(C)c(C)c1C(=O)NC1(C(=O)O)CCCC1`, the melting point is 235 to 237 °C. The figure for `O=C(O)CCNC(=O)c1ccc(F)cc1` is 133 to 135 °C; for `O=C(O)c1ccccc1N1CCCC1` it is 87 to 89 °C. The figure for `NS(=O)(=O)CCCN1C(=O)c2ccccc2C1=O` is 173 to 175 °C; for `CCCC1CCC(=O)NC1=O` (stereo not given) it is 76 to 78 °C.

The molecule `Cc1ccc(O)c(N)n1` came in with a melting point of 145 to 147 °C.

In the case of `Nc1cc2c(c(C(=O)O)c1)OCCO2`, the melting point lay within 213 to 215 °C.

As for `COc1cccc(/C=C/c2cc(C(=O)O)c3cc(Br)ccc3n2)c1`, the melting point lay in the range of 285 to 287 °C. The figure for `Cc1c(F)cc(C(=O)O)cc1[N+](=O)[O-]` is 168 to 170 °C.

In turn, `O=C(O)c1ncoc1C1CCCO1` (stereo not given) displayed a melting point of 125 to 127 °C.

`NC(=NO)C1CCCc2ccccc21` (stereo not given) had a melting point of 133 to 135 °C.

`O=C(O)c1cc2cccc(C(F)(F)F)c2[nH]1`: the melting point is 179 to 181 °C. As for `Cc1cc(C)c(C(=O)O)o1`, the melting point was in the range of 145 to 147 °C.

With `O=S1(=O)CCCN1c1ccc(Br)cc1`, the melting point is 108 to 110 °C. Consider `O=C(O)CCNS(=O)(=O)c1ccc2c(c1)OCCCO2`, for which the melting point lay within 200 to 205 °C. In the case of `COc1ccc(-c2cnc(CCC(=O)O)o2)cc1`, the melting point lay in the range of 158 to 160 °C. `[N-]=[N+]=Nc1cccc2ncccc12`: the melting point lay in the range of 61 to 63 °C. With `CCc1ccc(N)c(C(=O)OC)c1`, the melting point was 83 to 85 °C. In turn, `O=C(Nc1ccccc1Cl)OCC(F)(F)F` came in with a melting point of 44 to 46 °C. The molecule `Cc1ccc(C(=O)O)c(Sc2ccccc2)n1` registered a melting point of 169 to 171 °C.

On to `c1cnc2c(c1)NCCCN2`, for which the melting point was 84 to 86 °C. Take `O=C(O)CCN1C(=O)COc2cc(Br)ccc21`: the melting point was 153 to 155 °C. As for `COCCNC(=O)C1CCNCC1`, the figure is 158 to 160 °C; as for `CN(C)c1ccc(NC(=O)NN)cc1`, 140 to 142 °C; as for `O=C(CCl)Nc1ccc(N2CCCCC2)nc1`, 139 to 141 °C. Consider `CCOC(=O)c1c(C(C)(C)C)csc1N`, for which the melting point lay within 56 to 58 °C.

The molecule `Cc1cc(C(=O)O)nn1-c1ccc(Cl)c(Cl)c1` had a melting point of 219 to 221 °C. Take `N#Cc1ccc2nc(N)ncc2c1`: the melting point fell in the range of 344 to 346 °C. `COc1cc(C)c(C=O)cc1OC` returned a melting point of 70 to 72 °C.

`CC(Cl)C(=O)NC(C)(C)C` (stereo not given) registered a melting point of 84 to 86 °C. Consider `O=c1ccc2ccc(Cl)c(Cl)c2[nH]1`, for which the melting point is 241 to 243 °C. For `CC1CCc2c(sc(N)c2C#N)C1` (stereo not given), the melting point was in the range of 145 to 147 °C.

`COC(=O)c1n[nH]c(=O)c2noc(C3CC3)c12` came in with a melting point of 234 to 236 °C. Molecule `N#CCc1ccc(NC2CCCCC2)cc1` had a melting point of 57 to 59 °C. For `COC(=O)N(C)c1ccc(O)cc1`, the melting point is 99 to 101 °C.

`Nc1ccc(N2CCNCC2)cn1` displayed a melting point of 162 to 164 °C. The figure for `O=C(O)CNC(=O)c1cccc([N+](=O)[O-])c1` is 90 to 92 °C; for `O=C(O)Cc1c[nH]c2ccc(Cl)cc12` it is 157 to 159 °C; for `CN(C(=O)c1ccc(N)cc1)C1CCCCC1` it is 176 to 178 °C.

In turn, `Cc1ccc(S(=O)(=O)c2ccc(CBr)cc2)cc1` displayed a melting point of 137 to 139 °C. The molecule `CC(C)(C)OC(=O)Nc1ncon1` displayed a melting point of 165 to 167 °C. For the molecule `OCc1noc(-c2ccccc2)n1`, the melting point fell in the range of 80 to 82 °C. `CC(=O)NCc1ccc(C(=O)CCl)cc1` showed a melting point of 139 to 141 °C. For `O=S(=O)(CCCl)c1cccc(Br)c1`, the melting point was 63 to 65 °C.

The molecule `O=C(O)c1cc(Br)c2c(c1)OCCO2` showed a melting point of 258 to 260 °C. `O=C(O)Cc1ccc(N2CCCC2=O)cc1` had a melting point of 120 to 122 °C. `O=C(Cc1ccc(Cl)cc1Cl)c1ccc(F)cc1` showed a melting point of 108 to 110 °C.

`N#Cc1ncn(CC(N)=O)n1` registered a melting point of 194 to 196 °C.

Consider `OCc1ncc[nH]1`, for which the melting point is 99 to 101 °C.

`COc1ccccc1NCC(=O)O` returned a melting point of 159 to 161 °C. The figure for `COc1ccc2c(c1)NC(=O)C2=O` is 223 to 225 °C. `Cc1nn(C)c(C)c1C(C)C(=O)O` (stereo not given) yielded a melting point of 119 to 121 °C. As to `c1ccc(-c2csc(N3CCOCC3)n2)cc1`, the melting point was in the range of 75 to 77 °C. Molecule `Cc1ccc(C(N)=S)c(C)c1` showed a melting point of 59 to 63 °C. As for `ClCc1nc2ncc(Br)cc2[nH]1`, the figure is 209 to 211 °C; as for `NC1CCC2SCCSC12` (stereo not given), 49 to 51 °C; as for `O=C(O)Cc1coc(-c2ccccc2)n1`, 148 to 150 °C. As for `CC1=CC(=O)N(c2ccccc2C(=O)O)C1=O`, the figure is 163 to 165 °C; as for `Nc1ccnn1Cc1ccc(Br)s1`, 83 to 85 °C; as for `O=C(O)c1ccccc1-c1nc2ccccc2s1`, 190 to 192 °C. As for `CCCn1ncc(C(=O)O)c1C1CC1`, the melting point lay within 119 to 121 °C. On to `O=C(O)CNc1cccc(Cl)c1`, for which the melting point fell in the range of 174 to 176 °C. `Cc1nc2cc(F)ccc2cc1C(=O)O` registered a melting point of 262 to 264 °C.

`NC(=S)N1CCSCC1` came in with a melting point of 157 to 159 °C. In the case of `Cc1cccc(NC(N)=S)c1`, the melting point lay within 110 to 112 °C.

With `Cc1ccc(C(=O)N(C)C)cc1O`, the melting point was 153 to 155 °C. The figure for `C#CCOc1ccc(C=O)cc1` is 75 to 77 °C; for `CCOC(=O)c1sc2nc(CCl)nc(Cl)c2c1C` it is 168 to 170 °C. `CCNc1ccc(S(=O)(=O)C(F)(F)F)cc1N` displayed a melting point of 149 to 151 °C. For `Cc1nn(-c2ccc(F)cc2)cc1C=O`, the melting point fell in the range of 91 to 93 °C. Take `O=Cc1cc2c(cc1O)OCO2`: the melting point lay within 114 to 116 °C. As for `COc1ccc(S(=O)(=O)NC(C(=O)O)C(C)C)cc1` (stereo not given), the melting point fell in the range of 172 to 174 °C. For the molecule `Nc1cc(-c2ccc(I)cc2)no1`, the melting point lay in the range of 159 to 161 °C.

Turning to `Cc1nc(Cl)c(C)c(NN)n1`, the melting point lay within 141 to 143 °C. `COC(=O)N1CCc2cc(N)ccc21` registered a melting point of 149 to 151 °C. Turning to `Nc1ccc(Sc2cccs2)cn1`, the melting point fell in the range of 77 to 79 °C. Molecule `O=C(O)Cn1ccc(=O)c2ccccc21` yielded a melting point of 274 to 276 °C.

For `Nc1ccc(C(=O)N2CCc3ccccc32)cc1`, the melting point lay within 185 to 187 °C. Turning to `O=C(O)C1=NN(c2ccc(Cl)cc2)C(=O)CC1`, the melting point is 161 to 163 °C.
